Test results taken from US7332501B2, “Indol-3-yl-carbonyl-spiro-piperidine derivatives as V1a receptor antagonists” (Hoffmann-La Roche Inc., priority 2005, dated 2008).
Counter-ions that a name gives are not always drawn.

Molecular target: T1, human V1a receptor (Homo sapiens, UniProt P37288)
T1 construct: expressed in transfected cells; host or cells: HEK293 cells, transiently transfected; cell membranes
Test: human V1a receptor binding (3H-Vasopressin SPA, HEK293 membranes)
Conditions: displacement of 4 nM 3H-Vasopressin, membranes of HEK293 cells transiently transfected with human V1a receptor; Ki from IC50 by Cheng-Prussoff
Method in brief: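 Ki derived by Cheng-Prusoff from IC50 curves normalised to specific binding. Serially diluted compounds (in 2% DMSO) competed with 3H-vasopressin (4 nM working solution) for 1 h at room temperature on SPA beads bearing membranes of transiently transfected HEK293 cells; unlabelled vasopressin defined non-specific counts.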

T1 sequence (P37288 whole entry): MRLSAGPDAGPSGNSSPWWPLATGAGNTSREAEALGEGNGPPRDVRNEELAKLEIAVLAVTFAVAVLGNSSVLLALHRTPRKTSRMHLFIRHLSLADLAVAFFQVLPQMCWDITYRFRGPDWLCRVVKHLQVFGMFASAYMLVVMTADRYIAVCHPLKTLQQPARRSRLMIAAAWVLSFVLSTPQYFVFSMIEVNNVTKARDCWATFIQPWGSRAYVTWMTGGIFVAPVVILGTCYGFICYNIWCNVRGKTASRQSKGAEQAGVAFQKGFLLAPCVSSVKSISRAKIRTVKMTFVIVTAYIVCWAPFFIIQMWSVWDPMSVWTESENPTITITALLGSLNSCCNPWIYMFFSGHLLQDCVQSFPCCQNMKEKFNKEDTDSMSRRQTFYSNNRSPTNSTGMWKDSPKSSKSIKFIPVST

| SMILES | Ki [nM] |
| --- | --- |
| O=C(Cn1cc(C(=O)N2CCC3(CC2)OCc2ccccc23)c2ccc(Cl)cc21)N1CCNCC1 [Example 211, 1′-{[6-Chloro-1-(2-oxo-2-piperazin-1-ylethyl)-1H-indol-3-yl]carbonyl}-3H-spiro[2-benzofuran-1,4′-piperidine]] | 0.8 |
| CN1CCN(C(=O)Cn2cc(C(=O)N3CCC4(CC3)OCc3ccccc34)c3ccc(Cl)cc32)CC1 [Example 212, 1′-({6-Chloro-1-[2-(4-methylpiperazin-1-yl)-2-oxoethyl]-1H-indol-3-yl}carbonyl)-3H-spiro[2-benzofuran-1,4′-piperidine]] | 1.2 |
| Cc1cc2c(C(=O)N3CCC4(CC3)OCc3ccccc34)cn(CC(=O)N(C)C)c2cc1Cl [Example 213, 2-[6-Chloro-5-methyl-3-(1′H,3H-spiro[2-benzofuran-1,4′-piperidin]-1′-ylcarbonyl)-1H-indol-1-yl]-N,N-dimethylacetamide] | 3.3 |
| O=C(c1cn(C(=O)c2cccc(F)c2)c2cc(Cl)ccc12)N1CCC2(CC1)OCc1ccccc12 [Example 214] | 5.1 |
| O=C(c1cn(C(=O)c2ccccc2F)c2cc(Cl)ccc12)N1CCC2(CC1)OCc1ccccc12 [Example 215] | 8.6 |
| O=C(c1cn(C(=O)c2cc(F)cc(F)c2)c2cc(Cl)ccc12)N1CCC2(CC1)OCc1ccccc12 [Example 216] | 3.5 |
| O=C(c1cn(C(=O)c2cccc(F)c2F)c2cc(Cl)ccc12)N1CCC2(CC1)OCc1ccccc12 [Example 217] | 5.8 |
| O=C(c1cn(S(=O)(=O)c2cc(F)cc(F)c2)c2cc(Cl)ccc12)N1CCC2(CC1)OCc1ccccc12 [Example 218] | 25.1 |
| O=C(c1cn(Cc2cc(F)cc(F)c2)c2cc(Cl)ccc12)N1CCC2(CC1)OCc1ccccc12 [Example 219] | 1.2 |
| O=C(c1cn(Cc2cccc(F)c2)c2cc(Cl)ccc12)N1CCC2(CC1)OCc1ccccc12 [Example 220] | 1 |
| O=C(c1cn(-c2cc(F)cc(F)c2)c2cc(Cl)ccc12)N1CCC2(CC1)OCc1ccccc12 [Example 222] | 4 |
| O=C(c1cn(-c2cccc(F)c2)c2cc(Cl)ccc12)N1CCC2(CC1)OCc1ccccc12 [Example 223] | 2.5 |
| O=C(Cn1cc(C(=O)N2CCC3(CC2)OCc2ccccc23)c2ccc(Cl)cc21)c1ccccc1F [Example 224, 2-[6-Chloro-3-(1′H,3H-spiro[2-benzofuran-1,4′-piperidin]-1′-ylcarbonyl)-1H-indol-1-yl]-1-(2-fluorophenyl)ethanone] | 1.3 |
| O=C(c1cn(-c2ccccn2)c2cc(Cl)ccc12)N1CCC2(CC1)OCc1ccccc12 [Example 227] | 3.8 |
| O=C(c1cn(Cc2ccncc2)c2cc(Cl)ccc12)N1CCC2(CC1)OCc1ccccc12 [Example 228] | 1.5 |
| O=C(Cn1cc(C(=O)N2CCC3(CC2)OCc2ccccc23)c2ccc(Cl)cc21)c1ccccn1 [Example 229, 2-[6-Chloro-3-(1′H,3H-spiro[2-benzofuran-1,4′-piperidin]-1′-ylcarbonyl)-1H-indol-1-yl]-1-pyridin-2-ylethanone] | 1.6 |
| O=C(c1cn(Cc2cccnc2)c2cc(Cl)ccc12)N1CCC2(CC1)OCc1ccccc12 [Example 230, 1′-{[6-Chloro-1-(pyridin-3-ylmethyl)-1H-indol-3-yl]carbonyl}-3H-spiro[2-benzofuran-1,4′-piperidine]] | 1.7 |
| O=C(c1cn(Cc2ccccn2)c2cc(Cl)ccc12)N1CCC2(CC1)OCc1ccccc12 [Example 231, 1′-{[6-Chloro-1-(pyridin-2-ylmethyl)-1H-indol-3-yl]carbonyl}-3H-spiro[2-benzofuran-1,4′-piperidine]] | 1.6 |
| O=C(c1cn(CC2CN(Cc3ccccc3)CCO2)c2cc(Cl)ccc12)N1CCC2(CC1)OCc1ccccc12 (stereo not drawn) [Example 232, 1′-({1-[(4-Benzylmorpholin-2-yl)methyl]-6-chloro-1H-indol-3-yl}carbonyl)-3H-spiro[2-benzofuran-1,4′-piperidine]] | 5 |
| O=C(c1cn(Cc2cnccn2)c2cc(Cl)ccc12)N1CCC2(CC1)OCc1ccccc12 [Example 234, 1′-{[6-Chloro-1-(pyrazin-2-ylmethyl)-1H-indol-3-yl]carbonyl}-3H-spiro[2-benzofuran-1,4′-piperidine]] | 1.8 |
| O=C(c1cn(Cc2cncnc2)c2cc(Cl)ccc12)N1CCC2(CC1)OCc1ccccc12 [Example 235] | 1.4 |

| SMILES | Ki [nM] |
| --- | --- |
| Cc1cc(Cn2cc(C(=O)N3CCC4(CC3)OCc3ccccc34)c3ccc(Cl)cc32)no1 [Example 236, 1′-({6-Chloro-1-[(5-methylisoxazol-3-yl)methyl]-1H-indol-3-yl}carbonyl)-3H-spiro[2-benzofuran-1,4′-piperidine]] | 1.7 |
| Cc1nc(Cn2cc(C(=O)N3CCC4(CC3)OCc3ccccc34)c3ccc(Cl)cc32)c(C2CC2)o1 [Example 237] | 4 |
| Cn1cncc1Cn1cc(C(=O)N2CCC3(CC2)OCc2ccccc23)c2ccc(Cl)cc21 [Example 238] | 1.9 |
| Cc1cc(Cn2cc(C(=O)N3CCC4(CC3)OCc3ccccc34)c3ccc(Cl)cc32)on1 [Example 239, 1′-({6-Chloro-1-[(3-methylisoxazol-5-yl)methyl]-1H-indol-3-yl}carbonyl)-3H-spiro[2-benzofuran-1,4′-piperidine]] | 2.3 |
| Cc1cc(Cn2cc(C(=O)N3CCC4(CC3)OCc3ccccc34)c3ccc(Cl)cc32)nn1C [Example 240] | 2 |
| Cc1noc(C)c1Cn1cc(C(=O)N2CCC3(CC2)OCc2ccccc23)c2ccc(Cl)cc21 [Example 241] | 1.5 |
| Cc1nc(Cn2cc(C(=O)N3CCC4(CC3)OCc3ccccc34)c3ccc(Cl)cc32)c(C)o1 [Example 242] | 2.2 |
| O=C(c1cn(CC2(F)COC2)c2cc(Cl)ccc12)N1CCC2(CC1)OCc1ccccc12 [Example 243, 1′-({6-Chloro-1-[(3-fluorooxetan-3-yl)methyl]-1H-indol-3-yl}carbonyl)-3H-spiro[2-benzofuran-1,4′-piperidine]] | 1.4 |
| COCC1(Cn2cc(C(=O)N3CCC4(CC3)OCc3ccccc34)c3ccc(Cl)cc32)CC1 [Example 244, 1′-[(6-Chloro-1-{[1-(methoxymethyl)cyclopropyl]methyl}-1H-indol-3-yl)carbonyl]-3H-spiro[2-benzofuran-1,4′-piperidine]] | 2.6 |
| N#CCC1(Cn2cc(C(=O)N3CCC4(CC3)OCc3ccccc34)c3ccc(Cl)cc32)CC1 [Example 245, (1-{[6-Chloro-3-(1′H,3H-spiro[2-benzofuran-1,4′-piperidin]-1′-ylcarbonyl) -1H-indol-1-yl]methyl}cyclopropyl)acetonitrile] | 1.7 |
| O=C(c1cn(CCC2CCOCC2)c2cc(Cl)ccc12)N1CCC2(CC1)OCc1ccccc12 [Example 246, 1′-({6-Chloro-1-[2-(tetrahydro-2H-pyran-4-yl)ethyl]-1H-indol-3-yl}carbonyl)-3H-spiro[2-benzofuran-1,4′-piperidine]] | 1.9 |
| CC(C)(C)OC(=O)N1CCOC(Cn2cc(C(=O)N3CCC4(CC3)OCc3ccccc34)c3ccc(Cl)cc32)C1 (stereo not drawn) [Example 247, tert-Butyl 2-{[6-chloro-3-(1′H,3H-spiro[2-benzofuran-1,4′-piperidin]-1′-ylcarbonyl)-1H-indol-1-yl]methyl}morpholine-4-carboxylate] | 2.3 |
| O=C(c1cn(CC2CNCCO2)c2cc(Cl)ccc12)N1CCC2(CC1)OCc1ccccc12 (stereo not drawn) [Example 248, 1′-{[6-Chloro-1-(morpholin-2-ylmethyl)-1H-indol-3-yl]carbonyl}-3H-spiro[2-benzofuran-1,4′-piperidine]hydrochloride] | 1.5 |
| CN(C)CCNC(=O)Cn1cc(C(=O)N2CCC3(CC2)OCc2ccccc23)c2ccc(Cl)cc21 [Example 249, 2-[6-Chloro-3-(1′H,3H-spiro[2-benzofuran-1,4′-piperidin]-1′-ylcarbonyl)-1H-indol-1-yl]-N-[2-(dimethylamino)ethyl]acetamide] | 2.4 |
| NC(=O)Cn1cc(C(=O)N2CCC3(CC2)OCc2ccccc23)c2ccc(Cl)cc21 [Example 250, 2-[6-Chloro-3-(1′H,3H-spiro[2-benzofuran-1,4′-piperidin]-1′-ylcarbonyl)-1H-indol-1-yl]acetamide] | 4.1 |
| CNCCNC(=O)Cn1cc(C(=O)N2CCC3(CC2)OCc2ccccc23)c2ccc(Cl)cc21 [Example 251, 2-[6-Chloro-3-(1′H,3H-spiro[2-benzofuran-1,4′-piperidin]-1′-ylcarbonyl)-1H-indol-1-yl]-N-[2-(methylamino)ethyl]acetamide] | 2.1 |
| NCCNC(=O)Cn1cc(C(=O)N2CCC3(CC2)OCc2ccccc23)c2ccc(Cl)cc21 [Example 252, N-(2-Aminoethyl)-2-[6-chloro-3-(1′H,3H-spiro[2-benzofuran-1,4′-piperidin]-1′-ylcarbonyl)-1H-indol-1-yl]acetamide] | 2.3 |
| NCCn1cc(C(=O)N2CCC3(CC2)OCc2ccccc23)c2ccc(Cl)cc21 [Example 253, 2-[6-Chloro-3-(1′H,3H-spiro[2-benzofuran-1,4′-piperidin]-1′-ylcarbonyl)-1H-indol-1-yl]ethanamine] | 7.7 |
| CNCCn1cc(C(=O)N2CCC3(CC2)OCc2ccccc23)c2ccc(Cl)cc21 [Example 254, 2-[6-Chloro-3-(1′H,3H-spiro[2-benzofuran-1,4′-piperidin]-1′-ylcarbonyl)-1H-indol-1-yl]-N-methylethanamine] | 1.9 |
| CNC(=O)Cn1cc(C(=O)N2CCC3(CC2)OCc2ccccc23)c2ccc(Cl)cc21 [Example 255, 2-[6-Chloro-3-(1′H,3H-spiro[2-benzofuran-1,4′-piperidin]-1′-ylcarbonyl)-1H-indol-1-yl]-N-methylacetamide] | 1.4 |
| O=C(c1cn(CCN2CCOCC2)c2cc(Cl)ccc12)N1CCC2(CC1)OCc1ccccc12 [Example 256, 1′-{[6-Chloro-1-(2-morpholin-4-ylethyl)-1H-indol-3-yl]carbonyl}-3H-spiro[2-benzofuran-1,4′-piperidine]] | 2.4 |
